Laboratory results from ChEMBL document CHEMBL4340520, “Hederagenin amide derivatives as potential antiproliferative agents” (Eur J Med Chem, 2019).

Tests used:
FaDu = test: Cytotoxicity against human FADU cells assessed as reduction in cell viability after 96 hrs by SRB assay; assay type: functional, cell-based
A2780 = test: Cytotoxicity against human A2780 cells assessed as reduction in cell viability after 96 hrs by SRB assay; assay type: functional, cell-based; conditions: A2780, 96 h
HT-29 = test: Cytotoxicity against human HT-29 cells assessed as reduction in cell viability after 96 hrs by SRB assay; assay type: functional, cell-based; conditions: HT-29, 96 h
MCF7 = test: Cytotoxicity against human MCF7 cells assessed as reduction in cell viability after 96 hrs by SRB assay; assay type: functional, cell-based; conditions: MCF7, 96 h
SW-1736 = test: Cytotoxicity against human SW1736 cells assessed as reduction in cell viability after 96 hrs by SRB assay; assay type: functional, cell-based; conditions: SW-1736, 96 h
NIH3T3 = test: Cytotoxicity against mouse NIH/3T3 cells assessed as reduction in cell viability after 96 hrs by SRB assay; assay type: cell-based; conditions: NIH3T3, 96 h

Compound	EC50 (FaDu)	EC50 (A2780)	EC50 (HT-29)	EC50 (MCF7)	EC50 (SW-1736)	EC50 (NIH3T3)
CC(=O)OC[C@@]1(C)[C@@H]2CC[C@]3(C)[C@H](CC=C4[C@@H]5CC(C)(C)CC[C@]5(C(=O)O)CC[C@]43C)[C@@]2(C)CC[C@@H]1OC(C)=O	15.4 µM	11.9 µM	19 µM	9.8 µM	17.7 µM	9.6 µM
C=C(C)[C@@H]1CC[C@]2(C(=O)O)CC[C@]3(C)[C@H](CC[C@@H]4[C@@]5(C)CC[C@H](O)C(C)(C)[C@@H]5CC[C@]43C)[C@@H]12 [BETULINIC ACID]	–	–	–	12 µM	–	–
CC(=O)OC[C@@]1(C)[C@@H]2CC[C@]3(C)[C@H](CC=C4[C@@H]5CC(C)(C)CC[C@]5(C(=O)NCCc5ccccn5)CC[C@]43C)[C@@]2(C)CC[C@@H]1OC(C)=O	2.8 µM	1.5 µM	3.3 µM	3.5 µM	3.4 µM	7.1 µM
CC(=O)OC[C@@]1(C)[C@@H]2CC[C@]3(C)[C@H](CC=C4[C@@H]5CC(C)(C)CC[C@]5(C(=O)NCc5cn(Cc6ccccc6Cl)nn5)CC[C@]43C)[C@@]2(C)CC[C@@H]1OC(C)=O	2.2 µM	1.7 µM	1.7 µM	2.6 µM	1.8 µM	3.6 µM
CC(=O)OC[C@@]1(C)[C@@H]2CC[C@]3(C)[C@H](CC=C4[C@@H]5CC(C)(C)CC[C@]5(C(=O)NCc5cn(Cc6ccccc6F)nn5)CC[C@]43C)[C@@]2(C)CC[C@@H]1OC(C)=O	2.8 µM	1.3 µM	3 µM	2.8 µM	4.7 µM	6.9 µM
CC1(C)CC[C@]2(C(=O)NCCCCN)CC[C@]3(C)C(=CC[C@@H]4[C@@]5(C)CC[C@H](O)[C@@](C)(CO)[C@@H]5CC[C@]43C)[C@@H]2C1	> 30 µM	9.7 µM	6.1 µM	> 30 µM	12.2 µM	7 µM
CC1(C)CC[C@]2(C(=O)N3CCCCC3)CC[C@]3(C)C(=CC[C@@H]4[C@@]5(C)CC[C@H](O)[C@@](C)(CO)[C@@H]5CC[C@]43C)[C@@H]2C1	20.8 µM	18.2 µM	18.3 µM	7.8 µM	19.2 µM	18.5 µM
COC(=O)C(NC(=O)[C@]12CCC(C)(C)C[C@H]1C1=CC[C@@H]3[C@@]4(C)CC[C@H](O)[C@@](C)(CO)[C@@H]4CC[C@@]3(C)[C@]1(C)CC2)c1ccccc1 (some centres undefined)	> 30 µM	> 30 µM	> 30 µM	–	> 30 µM	> 30 µM
CC1(C)CC[C@]2(C(=O)N3CCNCC3)CC[C@]3(C)C(=CC[C@@H]4[C@@]5(C)CC[C@H](O)[C@@](C)(CO)[C@@H]5CC[C@]43C)[C@@H]2C1	> 30 µM	19.4 µM	22.5 µM	–	> 30 µM	17.4 µM
CC(=O)OC[C@@]1(C)[C@@H]2CC[C@]3(C)[C@H](CC=C4[C@@H]5CC(C)(C)CC[C@]5(C(=O)N5CCCCC5)CC[C@]43C)[C@@]2(C)CC[C@@H]1OC(C)=O	5.5 µM	2.8 µM	5.7 µM	6.2 µM	7.1 µM	15.2 µM
CC(=O)OC[C@@]1(C)[C@@H]2CC[C@]3(C)[C@H](CC=C4[C@@H]5CC(C)(C)CC[C@]5(C(=O)N5CCNCC5)CC[C@]43C)[C@@]2(C)CC[C@@H]1OC(C)=O	5.3 µM	1.9 µM	6.7 µM	6.1 µM	9 µM	10.8 µM
